Assay results published in ChEMBL document CHEMBL4665917, “Optimization of Versatile Oxindoles as Selective PI3Kδ Inhibitors” (ACS Med Chem Lett, 2020).
≈ marks a conversion by molar mass, not a printed value.

Experiments:
[1] = Half life in Beagle dog at 0.5 mg/kg, iv or 1 mg/kg, po; type: ADME, organism-based, Canis lupus familiaris; conditions: in vivo
[2] = Volume of distribution in Wistar-Han rat at 0.5 mg/kg, iv or 1 mg/kg, po; type: ADME, organism-based; conditions: in vivo
[3] = Clearance in Beagle dog at 0.5 mg/kg, iv or 1 mg/kg, po; type: ADME, organism-based, Canis lupus familiaris; conditions: in vivo
[4] = Solubility of the compound at pH 7; type: physicochemical; conditions: buffer
[5] = Unbound volume of distribution in Wistar-Han rat at 0.5 mg/kg, iv or 1 mg/kg, po; type: ADME, organism-based; conditions: in vivo
[6] = Intrinsic clearance in Wistar-Han rat at 0.5 mg/kg, iv or 1 mg/kg, po; type: ADME, organism-based; conditions: in vivo
[7] = Apparent permeability in pig LLC-PK1 cells; type: ADME, cell-based, Sus scrofa
[8] = Intrinsic clearance in Beagle dog at 0.5 mg/kg, iv or 1 mg/kg, po; type: ADME, organism-based, Canis lupus familiaris; conditions: in vivo
[9] = Volume of distribution in Beagle dog at 0.5 mg/kg, iv or 1 mg/kg, po; type: ADME, organism-based, Canis lupus familiaris; conditions: in vivo
[10] = Unbound volume of distribution in Beagle dog at 0.5 mg/kg, iv or 1 mg/kg, po; type: ADME, organism-based, Canis lupus familiaris; conditions: in vivo
[11] = Half life in Wistar-Han rat at 0.5 mg/kg, iv or 1 mg/kg, po; type: ADME, organism-based; conditions: in vivo
[12] = Clearance in Wistar-Han rat at 0.5 mg/kg, iv or 1 mg/kg, po; type: ADME, organism-based; conditions: in vivo
cells = conditions: Homo sapiens, HeLa
[13] = Oral bioavailability in Wistar-Han rat at 1 mg/kg; type: ADME, organism-based; conditions: in vivo
[14] = Oral bioavailability in Beagle dog at 1 mg/kg; type: ADME, organism-based, Canis lupus familiaris; conditions: in vivo

CCn1c(-c2cnc(C)nc2)nc2c(-c3cnc4c(c3)[C@](C)(N3CC(C)(OC)C3)C(=O)N4)ncnc21
half-life [1]: 2 h
Vd [2]: 1.7 L/kg
clearance [3]: 7.4 mL/min/kg
solubility [4]: 160 µM (≈ 77.7 µg/mL)
Vdu [5]: 3.3 L/kg
CL [6]: 18 mL/min/kg
Papp [7]: 24 ×10⁻⁶ cm/s
CL [8]: 16 mL/min/kg
Vd [9]: 1.3 L/kg
Vdu [10]: 2.1 L/kg
half-life [11]: 2.8 h
clearance [12]: 8.1 mL/min/kg

Cn1cnc2c(-c3ccc4c(c3)[C@](C)(CC3CC3)C(=O)N4)ncnc21
IC50 (cells): 3.1 µM

CCn1c(-c2cnc(C)nc2)nc2c(-c3ccc4c(c3)[C@](C)(CC3CCO3)C(=O)N4)ncnc21 (stereo partly specified)
half-life [1]: 1 h
Vd [2]: 2.4 L/kg
clearance [3]: 24 mL/min/kg
Vdu [5]: 6 L/kg
CL [6]: 99 mL/min/kg
CL [8]: 250 mL/min/kg
Vd [9]: 1.7 L/kg
Vdu [10]: 3.5 L/kg
half-life [11]: 1 h
clearance [12]: 27 mL/min/kg

CCn1c(-c2cnc(C)nc2)nc2c(-c3ccc4c(c3)[C@@]3(CCCN3C(C)C)C(=O)N4)ncnc21
half-life [1]: 1 h
Vd [2]: 3.1 L/kg
solubility [4]: 56 µM (≈ 26.2 µg/mL)
Vdu [5]: 14 L/kg
Vd [9]: 2.2 L/kg
Vdu [10]: 11 L/kg
half-life [11]: 0.6 h

CCn1c(-c2cnc(C)nc2)nc2c(-c3ccc4c(c3)[C@@]3(CCCN3C(=O)C3CC3)C(=O)N4)ncnc21
half-life [1]: 0.5 h
Vd [2]: 1.9 L/kg
solubility [4]: 34 µM (≈ 16.8 µg/mL)
Vdu [5]: 5.5 L/kg
bioavailability [13]: 10%
bioavailability [14]: 78%
Papp [7]: 10 ×10⁻⁶ cm/s
Vd [9]: 1.5 L/kg
Vdu [10]: 3.8 L/kg
half-life [11]: 0.5 h

CCn1ncc(-c2nc3c(-c4ccc5c(c4)[C@](C)(CC4CC4)C(=O)N5)ncnc3n2C)c1C
IC50 (cells): 0.017 µM

CCn1c(-c2cnc(C)nc2)nc2c(-c3cnc4c(c3)[C@](C)(N[C@H]3CCOC3)C(=O)N4)ncnc21
half-life [1]: 3.4 h
Vd [2]: 3.8 L/kg
IC50 (cells): > 10 µM
solubility [4]: 150 µM (≈ 70.7 µg/mL)
Vdu [5]: 4.9 L/kg
bioavailability [13]: 33%
bioavailability [14]: 91%
Papp [7]: 5.7 ×10⁻⁶ cm/s
Vd [9]: 1.2 L/kg
Vdu [10]: 1.6 L/kg
half-life [11]: 3 h

CCn1c(-c2cnc(C)nc2)nc2c(-c3ccc4c(c3)[C@](C)(NC3CCC3)C(=O)N4)ncnc21
Vd [2]: 2.4 L/kg
solubility [4]: 130 µM (≈ 59.1 µg/mL)
Vdu [5]: 7.3 L/kg
CL [6]: 930 mL/min/kg
Papp [7]: 30 ×10⁻⁶ cm/s
half-life [11]: 0.6 h
clearance [12]: 66 mL/min/kg

Cc1ncc(-c2nc3c(-c4cnc5c(c4)[C@](C)(N[C@H]4CCOC4)C(=O)N5)ncnc3n2C)cn1
half-life [1]: 2 h
Vd [2]: 2.4 L/kg
clearance [3]: 1.9 mL/min/kg
IC50 (cells): 8.2 µM
solubility [4]: 140 µM (≈ 64 µg/mL)
Vdu [5]: 3.1 L/kg
CL [6]: 240 mL/min/kg
CL [8]: 3 mL/min/kg
Vd [9]: 0.2 L/kg
Vdu [10]: 0.3 L/kg
half-life [11]: 1.1 h
clearance [12]: 58 mL/min/kg
